{
  "source": "paper PMC7614683",
  "about": "“A small molecule PI3Kα activator for cardioprotection and neuroregeneration” (Nature, 2023)",
  "assay_in_all_cases": "SelectScreen LanthaScreen Binding",
  "conditions_in_all_cases": "1000 nM",
  "key": {"DYRK2": {"target": "T1, DYRK2 (Homo sapiens, UniProt Q92630)", "T1 sequence (Q92630 1-601)": "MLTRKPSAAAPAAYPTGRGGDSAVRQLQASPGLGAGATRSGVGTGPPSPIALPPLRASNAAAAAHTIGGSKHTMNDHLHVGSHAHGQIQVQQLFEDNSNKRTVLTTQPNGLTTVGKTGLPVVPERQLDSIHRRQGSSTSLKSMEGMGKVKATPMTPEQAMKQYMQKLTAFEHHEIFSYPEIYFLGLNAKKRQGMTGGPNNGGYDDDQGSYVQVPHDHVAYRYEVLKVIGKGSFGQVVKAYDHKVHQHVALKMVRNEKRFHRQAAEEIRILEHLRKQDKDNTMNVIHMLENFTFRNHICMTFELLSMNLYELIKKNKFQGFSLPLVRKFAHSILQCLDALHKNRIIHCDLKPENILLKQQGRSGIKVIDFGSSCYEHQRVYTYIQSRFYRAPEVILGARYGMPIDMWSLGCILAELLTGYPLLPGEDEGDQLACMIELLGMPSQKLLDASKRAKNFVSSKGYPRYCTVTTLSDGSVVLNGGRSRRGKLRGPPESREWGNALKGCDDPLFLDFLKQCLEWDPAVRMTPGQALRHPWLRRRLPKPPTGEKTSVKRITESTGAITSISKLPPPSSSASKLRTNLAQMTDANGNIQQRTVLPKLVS", "summary_of_the_method": "(§1)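 Compound 1938 counterscreened at 1 μM against 133 protein and 7 lipid kinases in the SelectScreen panel, using Adapta, LanthaScreen binding and Z-LYTE formats as applicable.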"}, "TNIK": {"target": "TNIK (Homo sapiens, UniProt Q9UKE5)", "sequence (Q9UKE5 whole entry)": "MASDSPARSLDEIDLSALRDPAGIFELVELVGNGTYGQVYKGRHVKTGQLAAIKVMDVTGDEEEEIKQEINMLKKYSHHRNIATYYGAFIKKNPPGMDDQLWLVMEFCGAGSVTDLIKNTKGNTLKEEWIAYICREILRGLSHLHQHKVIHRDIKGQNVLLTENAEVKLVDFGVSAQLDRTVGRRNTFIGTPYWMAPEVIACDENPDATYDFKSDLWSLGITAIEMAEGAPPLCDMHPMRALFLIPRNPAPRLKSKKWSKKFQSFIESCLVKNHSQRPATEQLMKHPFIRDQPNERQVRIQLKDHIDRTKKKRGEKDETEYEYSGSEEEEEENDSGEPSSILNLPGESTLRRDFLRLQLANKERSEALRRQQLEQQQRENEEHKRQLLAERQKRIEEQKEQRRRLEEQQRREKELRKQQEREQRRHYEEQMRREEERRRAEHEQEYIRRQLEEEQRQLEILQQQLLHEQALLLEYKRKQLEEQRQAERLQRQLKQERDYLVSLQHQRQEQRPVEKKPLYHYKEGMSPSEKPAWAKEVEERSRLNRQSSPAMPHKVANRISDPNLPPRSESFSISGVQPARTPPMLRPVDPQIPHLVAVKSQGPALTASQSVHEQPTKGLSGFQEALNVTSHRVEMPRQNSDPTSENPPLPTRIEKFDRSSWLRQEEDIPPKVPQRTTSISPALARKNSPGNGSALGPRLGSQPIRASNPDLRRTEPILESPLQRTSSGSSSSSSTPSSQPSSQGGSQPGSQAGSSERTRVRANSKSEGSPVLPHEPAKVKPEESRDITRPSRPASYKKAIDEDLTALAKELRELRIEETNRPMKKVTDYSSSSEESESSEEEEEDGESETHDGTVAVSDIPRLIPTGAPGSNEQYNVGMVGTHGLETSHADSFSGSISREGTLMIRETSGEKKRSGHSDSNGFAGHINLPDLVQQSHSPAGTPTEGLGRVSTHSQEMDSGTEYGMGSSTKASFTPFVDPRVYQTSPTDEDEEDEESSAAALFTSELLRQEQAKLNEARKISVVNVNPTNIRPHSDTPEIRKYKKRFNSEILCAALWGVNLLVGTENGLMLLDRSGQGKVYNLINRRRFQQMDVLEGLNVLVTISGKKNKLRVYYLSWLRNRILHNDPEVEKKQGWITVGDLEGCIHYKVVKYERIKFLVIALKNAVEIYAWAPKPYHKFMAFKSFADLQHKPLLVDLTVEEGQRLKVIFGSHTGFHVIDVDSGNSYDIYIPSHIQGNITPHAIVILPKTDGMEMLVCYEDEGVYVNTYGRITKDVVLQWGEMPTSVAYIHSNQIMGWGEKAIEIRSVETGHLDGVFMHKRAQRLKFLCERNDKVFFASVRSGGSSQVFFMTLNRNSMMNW", "summary_of_the_method": "as §1"}, "DDR2": {"target": "T2, DDR2 (Homo sapiens, UniProt Q16832)", "T2 sequence (Q16832 22-855)": "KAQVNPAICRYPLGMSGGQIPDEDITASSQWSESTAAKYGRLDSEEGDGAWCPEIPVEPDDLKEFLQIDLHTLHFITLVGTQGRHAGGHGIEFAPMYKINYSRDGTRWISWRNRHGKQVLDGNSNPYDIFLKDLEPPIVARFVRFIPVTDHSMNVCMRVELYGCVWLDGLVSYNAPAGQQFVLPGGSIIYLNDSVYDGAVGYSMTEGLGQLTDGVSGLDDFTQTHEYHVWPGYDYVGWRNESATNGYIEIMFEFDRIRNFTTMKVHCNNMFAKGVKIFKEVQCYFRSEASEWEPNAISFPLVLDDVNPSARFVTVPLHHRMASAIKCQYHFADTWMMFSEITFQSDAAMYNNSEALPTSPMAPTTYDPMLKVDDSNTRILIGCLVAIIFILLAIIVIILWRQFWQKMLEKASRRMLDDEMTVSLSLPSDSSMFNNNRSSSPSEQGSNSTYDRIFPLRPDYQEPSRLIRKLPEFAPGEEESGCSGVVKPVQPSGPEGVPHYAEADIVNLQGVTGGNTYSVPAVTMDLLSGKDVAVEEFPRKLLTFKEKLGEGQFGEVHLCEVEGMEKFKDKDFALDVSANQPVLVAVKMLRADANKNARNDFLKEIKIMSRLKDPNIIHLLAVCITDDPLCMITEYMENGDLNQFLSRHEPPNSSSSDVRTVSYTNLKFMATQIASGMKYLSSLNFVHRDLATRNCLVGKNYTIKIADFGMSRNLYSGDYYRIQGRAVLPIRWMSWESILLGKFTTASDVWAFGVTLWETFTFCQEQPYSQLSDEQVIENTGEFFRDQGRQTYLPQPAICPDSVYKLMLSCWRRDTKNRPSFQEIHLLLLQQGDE", "summary_of_the_method": "as §1"}},
  "data": [
    {"smiles": "CCN1CCN(c2ccc(Nc3cc(Nc4cccc5c4N(C(C)=O)CC5)ccn3)cc2)CC1", "note": "[Compound 1938]", "values": [
      {"measurement": "% Displacement Point 1", "setting": "DYRK2", "result": 23, "unit": "%"},
      {"measurement": "% Displacement Point 2", "setting": "DYRK2", "result": 1, "unit": "%"},
      {"measurement": "% Displacement mean", "setting": "DYRK2", "result": 12, "unit": "%"},
      {"measurement": "% Displacement Point 1", "setting": "TNIK", "result": 23, "unit": "%"},
      {"measurement": "% Displacement Point 2", "setting": "TNIK", "result": 25, "unit": "%"},
      {"measurement": "% Displacement mean", "setting": "TNIK", "result": 24, "unit": "%"},
      {"measurement": "% Displacement Point 1", "setting": "DDR2", "result": -6.46, "unit": "%"},
      {"measurement": "% Displacement Point 2", "setting": "DDR2", "result": 0.345, "unit": "%"},
      {"measurement": "% Displacement mean", "setting": "DDR2", "result": -3, "unit": "%"}
    ]}
  ]
}
